Assay results published in US10766865B2, “PKM2 modulators and methods for their use” (TOLERO PHARMACEUTICALS, INC., priority 2012, dated 2020).

Target: PKM2 (Homo sapiens, UniProt P14618)
Test: Cell-Based Pyruvate Kinase Activity Assay, NCI-H1299
Design: host or cells: A549 or NCI-H1299 lung cancer cells
Settings: NCI-H1299, 30 minutes with compound, n = 4; read-out: Cellular PKM2 activation EC50
Experimental: Cell-Based Pyruvate Kinase Activity Assay
A549 or NCI-H1299 lung cancer cells were plated at 20,000 cells per well (96-well plate) in MEM media plus 10% FBS, with no additional glutamine or pyruvate. Following overnight incubation, cells were washed with PBS followed by 4 hour incubation in MEM media. Compounds were added to the cells in 1% final concentration DMSO. After 30 minutes, cells were lysed, and pyruvate kinase activity in lysates was determined by Pyruvate Kinase Activity Assay (BioVision, Milpitas, Calif.). Maximum velocity values were calculated from the kinetic data, and AC50 values were determined using Prism GraphPad Software (La Jolla, Calif.). Compound washout experiments were as described above, except after a 30 minute incubation with Example 244 (469 nM), the cells were washed with PBS followed by the addition of MEM media for the indicated time period, lysed and pyruvate kinase activity determined. Results are tabulated in Table 3 and presented graphically in FIGS. 6A and 6B.

Chain of PKM2 (P14618 2-531 limits assumed): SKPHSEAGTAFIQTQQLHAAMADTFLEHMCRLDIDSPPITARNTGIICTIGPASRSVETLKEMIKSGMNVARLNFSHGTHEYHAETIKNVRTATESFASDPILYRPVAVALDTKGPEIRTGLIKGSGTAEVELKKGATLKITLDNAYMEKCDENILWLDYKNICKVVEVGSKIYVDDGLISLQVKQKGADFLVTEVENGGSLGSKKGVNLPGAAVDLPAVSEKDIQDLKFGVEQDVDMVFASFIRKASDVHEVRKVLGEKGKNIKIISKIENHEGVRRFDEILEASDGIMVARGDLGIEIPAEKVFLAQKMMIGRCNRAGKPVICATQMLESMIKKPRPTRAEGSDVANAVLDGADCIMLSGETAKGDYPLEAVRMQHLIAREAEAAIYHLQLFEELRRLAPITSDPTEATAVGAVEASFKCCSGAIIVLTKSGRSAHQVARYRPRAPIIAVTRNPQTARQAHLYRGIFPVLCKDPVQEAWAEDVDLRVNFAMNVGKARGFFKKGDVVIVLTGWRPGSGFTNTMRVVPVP

- EC50: 220 ± 50 nM
SMILES: O=C(c1cc(C(F)(F)F)n[nH]1)N(Cc1ccc(O)cc1F)CC1CCC1 [Example 1, N-(cyclobutylmethyl)-N-(2-fluoro-4-hydroxybenzyl)-3-(trifluoromethyl)-1H-pyrazole-5-carboxamide]
